Data taken from PMC8569681, “New Pyrimidine and Pyridine Derivatives as Multitarget Cholinesterase Inhibitors: Design, Synthesis, and In Vitro and In Cellulo Evaluation” (ACS Chemical Neuroscience, 2021).
Entries after “also recorded” stand apart in the source; their conditions may differ. Where two headings read alike, the source gives them in different places.

What was measured:
Type in all cases: biochemical
[1] = target: T1, Electrophorus electricus AChE (EeAChE) (Electrophorus electricus, UniProt O42275); experiment: Percent inhibition of EeAChE, Ellman's spectrophotometric method; conditions: for inhibition at 90 µM: read-out: % inhibition vs EeAChE ± SD (90 uM), 90 uM; for inhibition at 900 µM: read-out: % inhibition vs EeAChE ± SD (900 uM), 900 uM; for inhibition at 0.09 µM: read-out: % inhibition vs EeAChE ± SD, [I] 90 nM; for inhibition at 0.9 µM: read-out: % inhibition vs EeAChE ± SD, [I] 900 nM
T1 construct: purchased Sigma-Aldrich (Milan, Italy)
Procedure: (§1) All other chemical and biological reagents and solvents used were of the highest analytical, commercially available grade. The water, utilized for the preparation of the phosphate buffer and of the compound solutions, was distilled and filtered on nylon membrane filters with a 0.2 μm pore size with the Millipore Filtration apparatus before each use. Micropipettes Labmate (BRAND Dig. 10–100 μL; Dig. 100–1000 μL; Dig. 0.1–2 μL) and Transferpette (HIGH TECH LAB LM200: 20–200 μL; LM5000: 1000–5000 μL) were used to collect the samples. The assays were carried out by a double beam UV–vis Lambda 40 Perkin Elmer spectrophotometer using optical polystyrene cuvettes (10 × 10 × 45 mm, 340–800 nm optical transparency); each measure was repeated at least in triplicate. […] The spectrophotometric method of Ellman[25] with minor modifications was used to evaluate the inhibition of ChEs. […] EeAChE and eqBChE were periodically tested to evaluate the effective enzymatic activity.
(§2) For all the synthesized compounds, the percentages of inhibition toward AChE of Electrophorus electricus (EeAChE) and equine BChE (eqBChE) were evaluated.
Three milliliters of a solution in 0.1 M phosphate buffer (pH = 7.4) containing DTNB (0.25 mM) and EeAChE (0.083 UmL^–1) or eqBChE (0.083 UmL^–1) was placed in a polystyrene cuvette of 1.0 cm path length; 1 μL of a […] With this solution, the blank was made. […] Each experiment was repeated at least in triplicate.

equine BChE (eqBChE) = target: T2, equine BChE (eqBChE) (Equus caballus, UniProt P81908); experiment: Percent inhibition of eqBChE, Ellman's spectrophotometric method; conditions: for % inhibition vs eqBChE ± SD (900 uM): 900 nM; for inhibition at 0.9 µM: [I] 900 nM
T2 construct: purchased Sigma-Aldrich (Milan, Italy)
Procedure: On the synthesized compounds, enzymatic inhibition studies were carried out toward Electrophorus electricus AChE (EeAChE) and equine BChE (eqBChE) according to Ellman’s spectrophotometric method.[25]
as §1, §2
Three milliliters of a solution in 0.1 M phosphate buffer (pH = 7.4) containing DTNB (0.25 mM) and EeAChE (0.083 UmL^–1) or eqBChE (0.083 UmL^–1) was placed in a polystyrene cuvette of 1.0 cm path length; 1 μL of a solution in DMSO of the tested compound was added to obtain a cuvette concentration range of 9–0.09 μM. With this solution, the blank was made. […] Each experiment was repeated at least in triplicate.

[2] = target: T1, Electrophorus electricus AChE (EeAChE); experiment: Inhibition constant and mechanism vs EeAChE, Dixon's method; conditions: for inhibition mechanism on EeAChE: Dixon's plot, best fitting model; for α, EeAChE: mixed inhibition, α > 1 free enzyme, α < 1 enzyme–substrate complex; for Ki: three substrate and five inhibitor concentrations, read-out: Ki ± SD, EeAChE
Procedure: . The recorded data were analyzed with the enzyme kinetic module of SigmaPlot to find the best fitting model of inhibition using the linear regression analysis. The reference kinetic models used in the regression analysis were competitive, noncompetitive, uncompetitive, and mixed. Each determination was repeated five times, and incorrect values were discarded to reduce the standard deviation within the limit of 5%. In this way, the regression lines obtained have a linear regression coefficient (R^2) higher than 0.95. Dixon’s plots of all tested compounds are reported in the Supporting Information (Figures S1–S12).
18, 22, 25, 26, 28, and 30 toward eqBChE). For each compound, a 500 μM stock solution was prepared in H2O/DMSO or in 10^–2 M HCl and diluted in water to prepare solutions of opportune concentrations to introduce in the cuvette volumes ranging from 30 to 100 μL, to obtain the desired final concentrations. The maximum amount of DMSO used for the preparation of the stock solution was calculated to have a DMSO content in cuvette <0.033%.
Three milliliters of 0.1 M phosphate buffer (pH = 7.4) containing DTNB (0.25 mM) and EeAChE (0.083 UmL^–1) or eqBChE (0.083 UmL^–1) was mixed with the opportune volume of the inhibitor solution to obtain a final inhibitor concentration in cuvette between 90 and 1800 nM. With this solution, the blank was made. […]. The absorbance variations were measured at 412 nm at 25 °C between 0.5 and 1.5 min.
To determine the inhibition constants (Ki) and the inhibition mechanisms, the rates of hydrolysis at three different concentrations of substrate in the presence of five different concentrations of inhibitor were measured.

[3] = read-out: % inhibition vs EeAChE ± SD (9 uM), 9 uM, supplement csv
[4] = 0.0833 U/mL enzyme, 100 μM acetylthiocholine
[5] = read-out: % inhibition vs EeAChE ± SD, [I] 9 μM, 0.0833 U/mL enzyme, 100 μM acetylthiocholine
[6] = [I] 9 μM, 0.0833 U/mL enzyme, 100 μM acetylthiocholine, read-out: % inhibition vs eqBChE ± SD
[7] = read-out: % inhibition vs eqBChE ± SD (9 uM), 9 uM, supplement csv
[8] = 0.0833 U/mL enzyme, 100 μM acetylthiocholine, read-out: % inhibition vs eqBChE ± SD

T2 sequence (P81908 whole entry): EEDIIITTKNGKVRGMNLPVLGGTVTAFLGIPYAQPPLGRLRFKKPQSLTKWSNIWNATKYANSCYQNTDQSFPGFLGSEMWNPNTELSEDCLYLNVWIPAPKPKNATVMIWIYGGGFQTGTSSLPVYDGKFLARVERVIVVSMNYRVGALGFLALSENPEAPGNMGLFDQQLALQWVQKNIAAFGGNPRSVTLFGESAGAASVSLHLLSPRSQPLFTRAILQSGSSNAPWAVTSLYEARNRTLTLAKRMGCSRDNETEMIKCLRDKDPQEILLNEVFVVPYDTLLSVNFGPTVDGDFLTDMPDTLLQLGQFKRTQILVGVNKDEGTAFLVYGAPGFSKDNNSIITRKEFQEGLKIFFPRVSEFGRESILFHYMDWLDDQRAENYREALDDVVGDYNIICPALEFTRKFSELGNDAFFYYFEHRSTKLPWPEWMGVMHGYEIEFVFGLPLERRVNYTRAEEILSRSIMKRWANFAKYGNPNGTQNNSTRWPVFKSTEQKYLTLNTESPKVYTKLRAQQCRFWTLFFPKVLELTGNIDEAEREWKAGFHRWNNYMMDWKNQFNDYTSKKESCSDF
T1 sequence (O42275 24-633): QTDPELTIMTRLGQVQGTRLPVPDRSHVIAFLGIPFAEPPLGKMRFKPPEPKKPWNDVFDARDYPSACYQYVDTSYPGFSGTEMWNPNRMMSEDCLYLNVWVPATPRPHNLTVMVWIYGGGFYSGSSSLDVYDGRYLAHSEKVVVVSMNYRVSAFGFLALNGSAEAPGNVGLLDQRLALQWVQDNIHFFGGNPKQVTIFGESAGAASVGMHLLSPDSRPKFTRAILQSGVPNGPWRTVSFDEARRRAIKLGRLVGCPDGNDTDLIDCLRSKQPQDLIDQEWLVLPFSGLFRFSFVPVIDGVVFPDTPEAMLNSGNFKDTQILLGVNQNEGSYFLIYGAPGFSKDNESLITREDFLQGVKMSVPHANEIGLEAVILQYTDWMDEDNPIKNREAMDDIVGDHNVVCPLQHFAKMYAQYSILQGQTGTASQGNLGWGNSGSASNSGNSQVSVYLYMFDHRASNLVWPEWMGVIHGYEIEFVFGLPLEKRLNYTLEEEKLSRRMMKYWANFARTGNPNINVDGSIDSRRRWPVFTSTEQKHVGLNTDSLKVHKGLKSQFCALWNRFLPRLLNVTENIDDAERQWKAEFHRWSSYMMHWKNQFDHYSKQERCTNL

SMILES	inhibition at 9 µM [1, 3] [%]	inhibition at 90 µM ([1]; supplement csv) [%]	inhibition at 900 µM ([1]; supplement csv) [%]	inhibition at 0.09 µM [1, 4] [%]	inhibition at 0.9 µM [1, 4] [%]	inhibition at 9 µM [1, 5] [%]	inhibition at 9 µM (equine BChE (eqBChE); [6]) [%]	inhibition at 9 µM (equine BChE (eqBChE); [7]) [%]	% inhibition vs eqBChE ± SD (900 uM) (equine BChE (eqBChE); supplement csv) [%]	inhibition at 0.9 µM (equine BChE (eqBChE); [8]) [%]	inhibition at 0.09 µM (equine BChE (eqBChE); [I] 90 nM, 0.0833 U/mL enzyme, 100 μM acetylthiocholine, read-out: % inhibition vs eqBChE ± SD) [%]	inhibition mechanism on EeAChE [2]	α, EeAChE [2]	Ki [2] [nM]	% inhibition vs eqBChE ± SD (equine BChE (eqBChE); [I] 9 μM, 0.0833 U/mL enzyme, 100 μM acetylthiocholine) [%]
Oc1cccc(CNCCCCCCNc2ncccn2)c1O [Compound 20, 3-(((6-(Pyrimidin-2-ylamino)hexyl)amino)methyl)benzene-1,2-diol]	90.5 ± 0.5	12.8 ± 1.9	53.6 ± 3.1	12.8 ± 1.9	40 to 60	~90	17.1 ± 1.6	17.1 ± 1.6	–	–	–	–	–	–	–
COc1cc(CNCCCCCCNc2ncccn2)ccc1O [Compound 18, 2-Methoxy-4-(((6-(pyrimidin-2-ylamino)hexyl)amino)methyl)phenol]	59.5 ± 3.6	–	14.7 ± 0.5	–	14.7 ± 0.5	60 to 70	84	84.4 ± 0.8	44.2 ± 6.4	44	–	–	–	–	–
Brc1ccc(CNCCCCCCNc2ccccn2)cc1 [Compound 26, N^1-(4-Bromobenzyl)-N^6-(pyridin-2-yl)hexane-1,6-diamine]	23.5 ± 2.2	76.8 ± 0.5	–	–	–	24 to 30	76.8 ± 0.5	17 ± 2.7	–	17 ± 2.7	–	–	–	–	–
COc1cc(CNCCCCCCNc2ccccn2)ccc1O [Compound 30, 2-Methoxy-4-(((6-(pyridin-2-ylamino)hexyl)amino)methyl)phenol]	61.8 ± 1.9	90.9 ± 0.6	17.3 ± 0.6	–	17.3 ± 0.6	~60	91	51.2 ± 3.1	15.6 ± 6.1	51	15.6 ± 6.1	–	–	–	–
c1ccc(CNCCCCCCNc2ccccn2)cc1 [Compound 25, N^1-Benzyl-N^6-(pyridin-2-yl)hexane-1,6-diamine]	73.3 ± 0.1	71.6 ± 2.1	23.1 ± 5.7	–	23.1 ± 5.7	73	71.6 ± 2.1	16.6 ± 6.3	–	16.6 ± 6.3	–	mixed	0.8	995 ± 374	–
c1ccc(CNCCCCCCNc2ncccn2)cc1 [Compound 13, N^1-Benzyl-N^6-(pyrimidin-2-yl)hexane-1,6-diamine]	92.9 ± 0.4	19.2 ± 1.4	60.3 ± 1.5	19.2 ± 1.4	–	~90	26 ± 3.5	26 ± 3.5	–	–	–	mixed	0.3	426 ± 132	–
c1ccc(CNCCCCCNc2ncccn2)cc1 [Compound 9, N^1-Benzyl-N^5-(pyrimidin-2-yl)pentane-1,5-diamine]	90.2 ± 0.7	14.1 ± 1.4	57.1 ± 0.9	14.1 ± 1.4	40 to 60	~90	17.4 ± 2.7	17.4 ± 2.7	–	–	–	mixed	7.5	312 ± 108	–
c1cnc(NCCCCCCNCc2c[nH]c3ccccc23)nc1 [Compound 22, N^1-((1H-Indol-3-yl)methyl)-N^6-(pyrimidin-2-yl)hexane-1,6-diamine]	69.2 ± 1.4	–	16.4 ± 1.9	–	16.4 ± 1.9	60 to 70	94	94 ± 0.7	65.1 ± 3.8	65	–	–	–	–	94.0 ± 0.7
Oc1cccc(CNCCCCCCNc2ncccn2)c1 [Compound 19, 3-(((6-(Pyrimidin-2-ylamino)hexyl)amino)methyl)phenol]	84.4 ± 0.3	–	39 ± 1.9	–	40 to 60	~90	26.6 ± 3.9	26.6 ± 3.9	–	–	–	uncompetitive; also recorded: uncomp	–	509 ± 18	–
COc1ccccc1CNCCCCCCNc1ccccn1 [Compound 28, N^1-(2-Methoxybenzyl)-N^6-(pyridin-2-yl)hexane-1,6-diamine]	58.6 ± 1.1	74.3 ± 1.4	9 ± 1.6	–	9 ± 1.6	~60	74.3 ± 1.4	24.2 ± 3.3	–	24.2 ± 3.3	–	mixed	1.2	1320 ± 622	–
c1ccc(CNCCCCCNc2ccccn2)cc1 [Compound 23, N^1-Benzyl-N^5-(pyridin-2-yl)pentane-1,5-diamine]	53.5 ± 1.4	56.5 ± 3	10.3 ± 0.8	–	10.3 ± 0.8	53.5 ± 1.4	56.5 ± 3	5 ± 5.8	–	5 ± 5.8	–	mixed	2.2	743 ± 316	–
